Assays:
Carbonic anhydrase 2 = Carbonic anhydrase 2 (Homo sapiens, UniProt P00918); experiment: Esterase Assay; settings: pH 7.4
Method: (§1) CA activity was assayed by following the change in absorbance at 348 nm of 4-nitrophenylacetate (NPA) to 4-nitrophenylate ion over a period of 3 min at 25°Cusing a spectrophotometer (CHEBIOS UV-VIS) according to the method described by Verpoorte et al. [Verpoorte et al., J. Biol. Chem., 242:4221-4229] The enzymatic reaction contained 1.4 mL 0.05 M Tris-SO4 buffer (pH 7.4), 1 mL 3 mM 4-NPA, 0.5 mL H2O and 0.1 mL enzyme solution (total volume, 3.0 mL). A reference measurement was obtained by preparing the mixture without the enzyme solution. All measurements were made in triplicate. The Ki values were determined from a series of experiments using three different bromophenols concentrations and 4-NPA as the substrate at five different concentrations to construct Lineweaver-Burk curves [Lineweaver et al., J. Am. Chem. Soc., 57:685-693].

Carbonic anhydrase 1 = Carbonic anhydrase 1 (Homo sapiens, UniProt P00915); experiment: Esterase Assay; settings: pH 7.4
Sequence of Carbonic anhydrase 1 (P00915 whole entry): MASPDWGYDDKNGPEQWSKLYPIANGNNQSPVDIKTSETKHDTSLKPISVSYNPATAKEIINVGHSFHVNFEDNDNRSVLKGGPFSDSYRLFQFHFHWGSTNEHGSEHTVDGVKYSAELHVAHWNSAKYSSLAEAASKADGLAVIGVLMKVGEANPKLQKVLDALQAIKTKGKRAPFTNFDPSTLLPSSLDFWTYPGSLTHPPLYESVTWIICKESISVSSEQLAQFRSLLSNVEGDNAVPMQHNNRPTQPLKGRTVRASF
Method: as §1

Row | Compound | IC50 (Carbonic anhydrase 2) | Ki (Carbonic anhydrase 2) | IC50 (Carbonic anhydrase 1) | Ki (Carbonic anhydrase 1)
1 | Oc1ccc(Cc2ccc(O)c(O)c2O)cc1O [Carbonic anhydrase isoenzymes inhibitor, 15] | 79.4 µM | 42.5 µM | 54.3 µM | 8.36 µM
2 | Oc1cc(Br)c(Cc2cc(Br)c(O)c(O)c2O)cc1O [Carbonic anhydrase isoenzymes inhibitor, 16] | 63.6 µM | – | 4.28 µM | 2.59 µM

Further lines, results first:

Row | IC50 (Carbonic anhydrase 2) | Ki (Carbonic anhydrase 2) | IC50 (Carbonic anhydrase 1) | Ki (Carbonic anhydrase 1) | Compound
3 | 24.5 µM | 28.6 µM | 3.22 µM | 1.19 µM | O=C(c1cc(O)c(O)cc1Br)c1cc(Br)c(O)c(O)c1O [Carbonic anhydrase isoenzymes inhibitor, 14]
4 | 18.5 µM | 3.25 µM | 6.92 µM | 6.77 µM | O=C(c1ccc(O)c(O)c1)c1cc(Br)c(O)c(O)c1O [Carbonic anhydrase isoenzymes inhibitor, 13]
5 | 142 µM | 23 µM | 27.8 µM | 32.5 µM | O=C(c1ccc(O)c(O)c1)c1ccc(O)c(O)c1O [Carbonic anhydrase isoenzymes inhibitor, 5]

Reference: BindingDB's records for doi:10.3109/14756366.2012.670807 (Atatürk University, 2013)
